Results from patent US20230150920A1, “SALTS AND SOLID FORMS OF 4-BROMO-2,5-DIMETHOXYPHENETHYLAMINE” (priority 2021, published 2023).
“Also recorded” adds a separate entry of the source.

Legend:
Male Sprague-Dawley rats = experiment: Rat elevated zero-maze model of anxiety; assay type: in vivo
From the text: The rat zero-maze model is a refined alternative to the plus-maze, the most widely used animal model of anxiety, and consists of an elevated annular platform, divided equally into four quadrants. Two opposite quadrants are enclosed by Perspex walls on both the inner and the outer edges of the platform, while the remaining two opposite quadrants are open being enclosed only by a Perspex “lip”. Animals will show a preference for the closed areas, and avoidance of the open sections is assumed to stem from a rodent's natural aversion to open, exposed spaces. A reduction in the amount of activity on the open areas is considered to reflect an increase in anxiety (shepherd 1994). The ethologically-based behavior rearing was also assessed as an index of anxiety with a decrease in rearing indicative of an […] effect [(a) File 1985, Boissier 1976; (b) File, S. E. (1985). What can be learned from the effects of benzodiazepines on exploratory behavior? Neuroscience & Biobehavioral Reviews, 9(1), 45-54. doi:10.1016/0149-7634(85)90031-4; (c) Boissier, J. R., P. Simon and P. Soubrie. New approaches to the study of anxiety and anxiolytic drugs in animals. […]
Subjects were weighed and tail marked before being injected. After a specified pre-treatment time, subjects were placed in a closed quadrant and a 5-min test period were recorded on videotape for subsequent analysis. […] Animals are scored as being in the open area when all four paws were in an open quadrant and in the closed area only when all four paws have passed over the open-closed divide. […]
30 male Sprague-Dawley rats in treatment groups of 5, was intraperitoneally dosed with either Vehicle 1 (saline) or 2C-B at 1 of 4 dose levels (0.1, 1, 2 & 5 mg/kg) or chlordiazepoxide (6 mg/kg) in 5 mL/kg injection volumes. Thirty min later at T=0, rats were individually placed in a closed arm of the zero-maze and behavior was assessed by a “blind” observer using remote video monitoring over the subsequent 5 min. […]
Data was analysed with Statistica software (Statsoft USA version 10.0). […]

TNF-α = experiment: LPS-induced TNF-α release ex vivo in whole blood of dosed rats; parameters: species or system rat; conditions: for TNF alpha levels, LPS low dose: LPS 1 μg/mL
From the text: The bacterial endotoxin lipopolysaccharide (LPS) induces a strong inflammatory response from normal animal immune systems. This response is triggered when LPS is recognized by the innate immune system via the Toll Like Receptor (TLR4) particularly those located on monocytes and macrophages although they are also located on a wide variety of other cell types. Stimulation of the TLR4 receptor leads to recruitment and activation of IL-1R associated kinase 1 (IRAK-1) initiating a series of signalling events in immunoregulatory pathways such as activation of NF kappa B, p38 MAP Kinase, ERK and JNK and AP-1. These changes promote gene transcription and thereby potentiate secretion of pro inflammatory factors such as TNF alpha and other cytokines (Fang et al., 2004).
Determination of the effects of novel agents against LPS-induced TNF alpha release ex vivo provides an assessment of whether the plasma level of compound achieved after administration to whole animal is capable of affecting the inflammatory response.
Dexamethasone disodium phosphate salt was formulated in water to a concentration of 0.6 mg free base/mL to give a dose of 3 mg free base/kg when orally administered in a 5 mL/kg dosing volume. 2C-B hydrochloride was formulated in Vehicle 1 (saline) at concentrations of […]. This provided doses of 0.1 and 1 mg/kg respectively when injected ip in 5 mL/kg dosing volumes. Ex vivo formulation
LPS were dissolved in saline to concentrations of 0.2 and 0.6 mg/mL. This will then be diluted 10 fold in saline to give concentrations of 0.02 and 0.06 mg/mL that will provide concentrations of 1 and 3 μg/mL when 15 uL is added to 285 of whole blood (20 fold dilution).
Twenty four male SD rats (approximately 200 g), were group housed. Animals were maintained under a 12 h light/dark cycle, where temperature and humidity are controlled. Animals were allowed free access to food and water.
Rats were allocated to treatment groups of 6 and habituated to the test room on the day prior to the study. On the test day, rats were dosed orally with either water or dexamethasone 3 mg/kg in 5 mL/kg dosing volumes. Thirty minutes later the animals were dosed intraperitoneally with either saline or 2C-B in 5 mL/kg dosing volumes. After a further 90 minutes terminal blood samples were collected by cardiac puncture under CO2. • Three aliquots, each of 285 μL from each animal's blood sample were pipetted into separate Eppendorf tubes. • Tubes were left for 10 min • Assay tubes will then be mixed gently before adding 15 μL of saline or LPS to give final concentrations of 1 and 3 μg/ml. • After a further gentle mixing, assay tubes were placed in an incubator at 37° C. for 24 h. • At the end of this time, the whole blood aliquots were spun down to plasma. The plasma were then removed and placed in duplicate 96 well plates on dry ice. Plates were stored at −20° C. until analyzed for TNF-α after 10-fold dilution.
The TNF-alpha content of the collected rat plasmas samples were measured using a Rat TNF-alpha Quantikine ELISA Kit (cat no RTA00).
A 1-way ANOVA was conducted across the vehicle and 3 treatment groups (0.1 mg/kg 2C-B IP, 1 mg/kg 2C-B IP, and 3 mg/kg dexamethasone PO) independently for 3 stimulation conditions (no stimulation [saline], 1 μg/mL LPS, and 3 μg/mL LPS). […] Each group was compared to the vehicle group and a p-value for treatment determined by Fishers Least Significant Difference (LSD) test, without statistical penalty for multiple comparisons. […]

[1] = Dynamic vapor sorption/desorption (DVS), hygroscopicity; assay type: physicochemical
Method: The active pharmaceutical ingredient (API), 4-bromo-2,5-dimethoxyphenethylamine hydrochloride, is characterized to evaluate its physical properties. The evaluation is performed by X-ray powder diffraction (XRPD), polarized light microscopy (PLM), differential scanning calorimetry (DSC), thermogravimetry (TG), dynamic vapor sorption/desorption (DVS), and/or solubility testing in organic solvents, water, and mixed solvent systems. XRPD data are used to assess crystallinity. PLM data are used to evaluate crystallinity and particle size/morphology. DSC data are used to evaluate melting point, thermal stability, and crystalline form conversion. TG data are used to evaluate if the API is a solvate or hydrate, and to evaluate thermal stability. DVS data are used to evaluate hygroscopicity of the API and if hydrates can be formed at high relative humidity.
The form characterized in FIGS. 1 and 2 is designated as Form A herein. […] A sharp endotherm at 238° C. in the DSC thermogram is attributed to melting.

[2] = Water activity slurry experiments, 2C-B HCl Form A vs Form C; assay type: physicochemical; conditions: slurry of Form A at ambient temperature
[3] = Dynamic vapor sorption (DVS) with XRPD of the post-DVS sample; assay type: physicochemical
Method: Dynamic Vapor Sorption (DVS) analysis was carried out using a TA Instruments Q5000 Dynamic Vapor Sorption analyzer. The instrument was calibrated with standard weights and a sodium bromide standard for humidity. Approximately 10-25 mg of sample was loaded into a metal-coated quartz pan for analysis. The sample was analyzed at 25° C. with a maximum equilibration time of one hour in 10% relative humidity (RH) steps from 5 to 95% RH (adsorption cycle) and from 95 to 5% RH (desorption cycle). The movement from one step to the next occurred either after satisfying the equilibrium criterion of 0.01% weight change or, if the equilibrium criterion was not met, after one hour. The percent weight change values were calculated using Microsoft Excel.
(§1) The DVS analysis was carried out using a TA Instruments Q5000 Dynamic Vapor Sorption analyzer. 13.5 mg of sample was loaded into a metal-coated quartz pan for analysis. After equilibration to 5% relative humidity (RH), the sample was analyzed at 25° C. in 10% RH steps from 5 to 95% RH (adsorption cycle) and from 95 to 5% RH (desorption cycle). The movement from one step to the next occurred either after satisfying the equilibrium criterion of 0.01% weight change in 5 minutes or, if the equilibrium criterion was not met, after 90 minutes. The percent weight change values are calculated using Microsoft Excel®.
as §1, with “DVS analyses were” for “DVS analysis was”, “analyzer. Approximately 7-11” for “analyzer. 13.5”, “equilibration at” for “equilibration to”, “values were” for “values are”
as §1, with “analyzer. Approximately 2” for “analyzer. 13.5”, “equilibration at” for “equilibration to”, “values were” for “values are”

In the case of COc1cc(CCN)c(OC)cc1Br [2C-B, 4-bromo-2,5-dimethoxyphenethylamine], the frequency of rearing (Male Sprague-Dawley rats; ip 1 mg/kg, 2 mg/kg, and 5 mg/kg doses) is reported as “decreased the frequency of rearing as effectively as the benzodiazepine chlordiazepoxide”, the frequency of rearing (Male Sprague-Dawley rats; ip 5 mg/kg) is reported as “greatest numerical effect” and the frequency of rearing (Male Sprague-Dawley rats; ip 0.1, 1, 2 & 5 mg/kg, 30 min before 5-min test) is reported as “significantly reduced the number of rears in a dose dependent manner; also recorded: as effective as the chlordiazepoxide control”. For the same compound, the “TNF alpha levels, LPS low dose” value (TNF-α; 0.1 mg/kg ip) was “no difference vs placebo”, the “TNF alpha levels, LPS low dose” value (TNF-α; 1 mg/kg ip) was “trended towards significance” and the “TNF alpha levels, high level of LPS” value (TNF-α; 1 mg/kg ip, LPS 3 μg/ml, 1-way ANOVA) was “significant decrease in TNF alpha levels”. The “TNF alpha levels in the absence of LPS” value (TNF-α; no stimulation (saline), 2C-B 0.1 and 1 mg/kg ip, dexamethasone 3 mg/kg po) was “no effect” and the “amount of TNF alpha released in response to LPS” value (TNF-α; pre-treatment in vivo ip, LPS 1 and 3 μg/mL) was “reduced the amount of TNF alpha released in response to LPS”.

With COc1cc(CCN)c(OC)cc1Br.Cl [Form A, 4-bromo-2,5-dimethoxyphenethylamine hydrochloride] the “hygroscopicity based on DVS data” value [1] was “slightly hygroscopic”, the “Form change after moisture sorption/desorption (DVS)” value ([1]; loses all the gained moisture) was “without form change” and the “water activities at which the form was obtained or remained unchanged” value ([2]; hydrochloride) was ≤ 0.5. For the same compound, the “hygroscopicity based on DVS data” value ([3]; 25° C., 5 to 95% RH) was “slightly hygroscopic” and the “behaviour on desorption / form change by XRPD of post-DVS sample” value ([3]; desorption 95 to 5% RH) was “loses all the gained moisture without form change”.

In the case of COc1cc(CCN)c(OC)cc1Br.Cl [Form C, 4-bromo-2,5-dimethoxyphenethylamine HCl], the “water activities at which the form was obtained or remained unchanged” value ([2]; HCl) is reported as ≥ 0.6.
